The values that follow come from ChEMBL document CHEMBL1132911, “Cytotoxic halogenoacrylic derivatives of distamycin A” (Bioorg Med Chem Lett, 2000).

Test [1] concerns L1210. The test can be described thus: In vitro cytotoxicity was measured after 4 hr of exposure against L1210 murine leukemia cells. It counts as functional, Mus musculus.
Test [2] relates to L1210. The test can be described thus: In vitro cytotoxicity was measured after 48 hr of exposure against L1210 murine leukemia cells. It counts as functional, cell-based. Conditions: Mus musculus, L1210, 48 h.
Test [3] deals with Mus musculus. The experiment in a line: In vivo antileukemic activity against L1210 murine leukemia cell after intravenous administration in mice expressed as optimal (non toxic) dose. The format is functional.
In test [4] the test system is Mus musculus. The test can be described thus: In vivo antileukemic activity against L1210 murine leukemia in mice after iv administration of compound expressed as T/C ie median survival time of treated versus untreated mice (10). The format is functional.
The test system of test [5] is Mus musculus. The test can be described thus: In vivo antileukemic activity against L1210 murine leukemia after intravenous administration in mice expressed as optimal (non toxic) dose. It counts as functional.

Compound `Cl.Cn1cc(NC(=O)c2cc(NC(=O)c3cc(NC(=O)/C=C\Cl)cn3C)cn2C)cc1C(=O)NCCC(=N)N` yielded an IPol in the test on L1210 [1] above 50 µM.
The same measure, in the same setting: to `C=CC(=O)Nc1cc(C(=O)Nc2cc(C(=O)Nc3cc(C(=O)NCCC(=N)N)n(C)c3)n(C)c2)n(C)c1.Cl` belongs above 50 µM.
With `C=C(F)C(=O)Nc1cc(C(=O)Nc2cc(C(=O)Nc3cc(C(=O)Nc4cc(C(=O)NCCC(=N)N)n(C)c4)n(C)c3)n(C)c2)n(C)c1`, the IC50 (commonly the concentration that gives 50% inhibition) in the test on L1210 [2] is above 700 nM.
In the case of `C=C(Br)C(=O)Nc1cc(C(=O)Nc2cc(C(=O)NCCC(=N)N)n(C)c2)n(C)c1`, in the test on L1210 [2], the IC50 was above 1300 nM.
Compound `C=C(Cl)C(=O)Nc1cc(C(=O)Nc2cc(C(=O)Nc3cc(C(=O)NCCC(=N)N)n(C)c3)n(C)c2)n(C)c1.Cl` showed an IPol in the test with L1210 [1] of 1.47 µM. Further, the OD in the test with Mus musculus [3] stood at 12.5 mg/kg. Besides, in the test on Mus musculus [4], the T/C (commonly the ratio of treated to control) is recorded as 117%.
Turning to `C=C(Br)CNc1cc(C(=O)Nc2cc(C(=O)Nc3cc(C(=O)NCCC(=N)N)n(C)c3)n(C)c2)n(C)c1`, in the test on L1210 [2], the IC50 is above 1600 nM.
In turn, `Cl.Cn1cc(NC(=O)c2cc(NC(=O)c3cc(NC(=O)/C=C/Cl)cn3C)cn2C)cc1C(=O)NCCC(=N)N` had an IPol with L1210 [1] above 100 µM.
As to `C=C(Br)C(=O)Nc1cc(C(=O)Nc2cc(C(=O)Nc3cc(C(=O)NCCC(=N)N)n(C)c3)n(C)c2)n(C)c1.Cl`, in the test with L1210 [1], the IPol amounted to 0.1035 µM. The compound also had an OD with Mus musculus [5] of 12.5 mg/kg. This compound also gave a T/C in the test on Mus musculus [4] of 100%.
Consider `C=C(Br)C(=O)Nc1cc(C(=O)Nc2cc(C(=O)Nc3cc(C(=O)Nc4cc(C(=O)Nc5cc(C(=O)NCCC(=N)N)n(C)c5)n(C)c4)n(C)c3)n(C)c2)n(C)c1.Cl`, for which, in the test on L1210 [2], the IC50 is 23 nM. The OD in the test on Mus musculus [3] was found to be 0.78 mg/kg. Further, in the test with Mus musculus [4], the T/C was 167%.
Regarding `C=C(Br)C(=O)Nc1cc(C(=O)NCCC(=N)N)n(C)c1`, in the test with L1210 [2], the IC50 is above 13000 nM.
Turning to `C=C(Br)C(=O)Nc1cc(C(=O)Nc2cc(C(=O)Nc3cc(C(=O)Nc4cc(C(=O)NCCC(=N)N)n(C)c4)n(C)c3)n(C)c2)n(C)c1.Cl`, the OD in the test on Mus musculus [3] came out at 1.56 mg/kg. In the test with Mus musculus [4], the T/C was 200%.
Consider `C=C(Cl)C(=O)Nc1cc(C(=O)Nc2cc(C(=O)Nc3cc(C(=O)Nc4cc(C(=O)NCCC(=N)N)n(C)c4)n(C)c3)n(C)c2)n(C)c1.Cl`, for which, in the test on L1210 [2], the IC50 was determined as 3.8 nM. Besides, the OD with Mus musculus [3] is 1.56 mg/kg. The T/C in the test with Mus musculus [4] was 133%.
In the test with L1210 [2], `C=C(F)C(=O)Nc1cc(C(=O)Nc2cc(C(=O)Nc3cc(C(=O)NCCC(=N)N)n(C)c3)n(C)c2)n(C)c1` registered an IC50 above 800 nM.
